# Assay results as given in patent publication US20240082208A1 (priority 2021, published 2024).
# How the values were obtained:
# dengue virus = test: In vitro dengue virus infection of Vero cells, viral RNA titer by qRT-PCR; assay type: cell-based; settings: 40 μM, 48 hours after infection
# Description: In order to evaluate the antiviral effect of irosustat in vitro, an additional experiment was performed in which Vero cells were infected with dengue virus. 16 hours before viral infection, cells were pre-treated with irosustat at a concentration of 0 μM, 20 μM or 40 μM, and 1 hour thereafter, the medium was replaced with a cell culture medium containing the drug. 48 hours after infection with the virus, the viral RNA titer of dengue virus in the cell culture medium was measured through qRT-PCR, and the results are shown in FIG. 3.
# [1] = test system: severe acute respiratory syndrome virus (SARS; SARS-CoV-2); parameters: species or system K18-ACE2 TG mice; settings: mouse, in vivo
compound,measurement,setting,value
"NS(=O)(=O)Oc1ccc2c3c(c(=O)oc2c1)CCCCC3 [irosustat, (6-oxo-8,9,10,11-tetrahydro-7H-cyclohepta[c]chromen-3-yl)sulfamate]",decrease of virus titer,dengue virus,≥ 50%
same,"viral titer in the lung tissue, lower than vehicle",[1],about 77%
